Assay results as given in patent US20150272922A1, “Compounds for Reducing Glucocorticoids, and Methods of Treatment Thereof” (BIONICHE LIFE SCIENCES INC., priority 2012, published 2015).
In brackets after ≈: the same amount, converted by molar mass. Like-named read-outs stand apart in the source and are kept apart here.

System: trout head kidney tissue
Experiment: Cortisol lowering activity in trout head kidney slice model (ACTH-stimulated cortisol release)
Format: cell-based, rainbow trout (Oncorhynchus mykiss)
Conditions: for effect on cortisol production: 60 μg/ml, ACTH 1 U/ml; for EC50: Oncorhynchus mykiss; for concentration dependence of effect on cortisol production: ACTH 1 U/mL
Procedure: Head kidney tissue was isolated using a modified method as described by Conde-Sieira et al. (2013). Fish were anaesthetized with benzocaine (30-35 mg/L), blood was removed from the caudal vein using a 3 mL heparinized syringe and the fish euthanized by spinal transection. The vasculature was perfused through the post-cardinal vein with 40 mL of modified Hanks' medium (92.56 mM NaCl, 3.63 mM KCl, 0.55 mM MgSO4, 0.4 mM KH2PO4, 0.23 Na2HPO4, 7.5 mM Hepes, 2.81 mM NaHCO3, 0.85 mM CaCl2, 0.03% (w/v) bovine albumin serum) containing EGTA (1 mM final) adjusted to pH 7.64. The entire head kidney was removed from the trout and transferred to a 15 mL chilled glass petri dish containing modified Hanks' medium (pH 7.15). The tissue was weighed then transferred to a 35 mL chilled glass petri dish containing […] modified Hanks' medium per gram of tissue supplemented with MEM amino acid solution (50×; 2 mL/100 mL medium; Sigma—M5550), MEM non-essential amino acid solution (100×; 1 mL/100 mL medium; Sigma˜M7145) and Antibiotic-Antimycotic (100×; 1 mL/100 mL medium; Life Technologies˜15240). The tissue was chopped finely with a razor blade then separated further using a rubber policeman. The tissue was incubated at 13° C. with gentle agitation for 1.5 h to ensure basal levels of cortisol release. Optimal incubation times were determined in previous experiments (Conde-Sieira et al., 2013).
Following the 1.5 h pre-incubation, tissue was placed in 48-well culture plates (approximately 25 mg tissue pre well) along with a final volume of 250 μL modified Hanks' medium. There were two wells for each compound treatment; one control (−ACTH) and one stimulated (+ACTH) that were conducted simultaneously. Tissues were incubated with compounds of the disclosure (60 μg/mL) initiated at the same time as determined in previous experiments (Mullally et al., 2012) for 60 min at 13° C. with gentle agitation and stimulated with 1 U/mL ACTH (Sigma-Aldrich). The compounds were dissolved in ethanol and DMSO (final concentration of DMSO: 0.3% v/v, ethanol 1% v/v) by vortexing for 1 min and sonication for 30 s if the compound was not fully dissolved (determined by visual inspection). After incubation, tissue and supernatant were collected and transferred to pre-weighed 1.5 mL conical plastic tubes and centrifuged (14 000 RCF, 10 min). The supernatant was collected and transferred into a new 1.5 mL conical plastic tube and flash frozen in liquid nitrogen for subsequent cortisol assay. The mass of tissue for each sample was determined by weighing the remaining tissue in the pre-weighed tubes. Four control wells were prepared for each preparation: modified Hanks' medium, modified Hanks' medium plus ACTH (1 U/mL), DMSO/ethanol blank (0.3% v/v DMSO, 1% v/v ethanol) and DMSO/ethanol blank plus ACTH (1 U/mL).
Cortisol concentrations were assessed using a ^125I RIA kit (MP Biomedicals, Irvine, Calif., USA) as per the manufacturer's instructions and read using a Packard® Cobra™ Auto-Gamma Counter. Counts were normalized to tissue weights in each experimental well.
Data are presented as % change in ACTH-stimulated cortisol release relative to control preparation (modified Hanks' medium stimulated with ACTH) using GraphPad Prism software (GraphPad Software, Inc., La Jolla, Calif.). […] GraphPad Prism software (GraphPad Software, Inc., La Jolla, Calif.) was used to graph and calculate EC50 values by fitting a sigmoidal curve to the dose response data as well as linear regressions between Log P of compounds of the disclosure vs log cortisol responses.

[1] = read-out: calculated EC50, approximate (inhibition of cortisol production)
[2] = GraphPad Prism fit, n=3-7, FIG. 3, read-out: EC50, four parameter sigmoidal curve (ACTH-stimulated cortisol release)

Compound: COC(=O)[C@]12CC[C@@H](C(C)O)C1C1CCC3[C@@]4(C)CC[C@H](O)C(C)(C)C4CC[C@@]3(C)[C@]1(C)CC2 (single isomer, unassigned) [Compound 1546]
- effect on cortisol production: lowered cortisol production
- EC50 [1]: ~9 µg/mL (≈ 19 µM)
- EC50 [2]: 9.5 µg/mL (≈ 20 µM)

Compound: CC(=O)[C@@H]1CC[C@]2(C(=O)O)CC[C@]3(C)[C@H](CC[C@@H]4[C@@]5(C)CC[C@H](O)C(C)(C)[C@@H]5CC[C@]43C)[C@@H]12 [Compound 1516, Platanic Acid]
- effect on cortisol production: lowered cortisol production
- EC50 [1]: ~9 µg/mL (≈ 19.6 µM)
- EC50 [2]: 9.4 µg/mL (≈ 20.5 µM)
- concentration dependence of effect on cortisol production (dose response): inhibited cortisol production in a dose-dependent manner

Compound: C=C(C)[C@@H]1CC[C@]2(C(=O)OC)CC[C@]3(C)C(CCC4[C@@]5(C)C[C@@H](O)C(=O)C(C)(C)C5CC[C@]43C)C12 (stereo partly drawn) [Compound 1521, Methyl 2α-hydroxy betulonate]
- effect on cortisol production: lowered cortisol production

Compound: C=C(C)[C@@H]1CC[C@]2(/C=C/C(=O)OCC)CC[C@]3(C)C(CCC4[C@@]5(C)CC[C@H](O)C(C)(C)C5CC[C@]43C)C12 (some centres unmarked) [Compound 1529, Vinylogous ethyl betulinate]
- effect on cortisol production: lowered cortisol production
- EC50 [2]: 116 µg/mL (≈ 227 µM)

Compound: COC(=O)[C@]12CC[C@@H](C)[C@H](C)[C@H]1C1=CCC3[C@@]4(C)C[C@@H](O)C(=O)C(C)(C)C4CC[C@@]3(C)[C@]1(C)CC2 (stereo partly drawn) [Compound 1537, Methyl 2α-hydroxy-3-oxo-urs-12-en-28-oate]
- effect on cortisol production: lowered cortisol production
- EC50 (ACTH-stimulated cortisol release, dose response, FIG. 3, read-out: calculated EC50, approximate (inhibition of cortisol production)): ~28 µg/mL (≈ 57.8 µM)
- EC50 [2]: 28.2 µg/mL (≈ 58.2 µM)
- concentration dependence of effect on cortisol production (dose response): inhibited cortisol production in a dose-dependent manner
